Results on one molecule are retold here after publication PMC6395927, “Rufomycin Targets ClpC1 Proteolysis in Mycobacterium tuberculosis and M. abscessus” (Antimicrobial Agents and Chemotherapy, 2019).

The test system of test [1] is M. tuberculosis 5 global clade representatives. The test can be described thus: microbe, parasite or virus in culture. It counts as cell-based. Particulars: Mycobacterium tuberculosis, read-out: MICs.
Test [2] deals with M. smegmatis (ATCC 700084). The test can be described thus: microbe, parasite or virus in culture. Conditions: Mycolicibacterium smegmatis, ATCC700084; M. smegmatis; read-out: MIC. It counts as cell-based.
Test [3] relates to M. chelonae (ATCC 35752). The test can be described thus: microbe, parasite or virus in culture. It counts as cell-based, Mycobacterium chelonae. Conditions: Mycobacteroides chelonae, ATCC35752; M. chelonae; read-out: MIC.
The subject of test [4] is M. bovis (ATCC 35734). The test can be described thus: microbe, parasite or virus in culture. Conditions: Mycobacterium tuberculosis variant bovis, ATCC35734. Format: cell-based.
In test [5] the test system is M. kansasii (ATCC 12478). The experiment in a line: microbe, parasite or virus in culture. Format: cell-based. Conditions: Mycobacterium kansasii, ATCC12478; M. kansasii; read-out: MIC.
Test [6] deals with M. tuberculosis. The experiment in a line: microbe, parasite or virus in culture. Format: cell-based, Mycobacterium tuberculosis.
Test [7] relates to M. abscessus in bone marrow-derived macrophages. The test can be described thus: Intracellular survival assay in BMDMs. Format: cell-based, Mycobacterium abscessus. Particulars: 2 days, 5 and 10 μM. Here is the method:
Bone marrow-derived macrophages (BMDMs) were isolated from the femurs and tibias of C57BL/6 mice (5 to 6 weeks old) and differentiated by culturing for 4 days in DMEM containing 10% (vol/vol) FBS and 25 ng/ml of macrophage colony-stimulating factor (M-CSF; R&D, Minneapolis, MN). The final densities of differentiated BMDMs were 1 × 10^5 to 3 × 10^5 per well in 48-well plates. Cells were infected for 2 h with M. abscessus at a multiplicity of infection (MOI) of 5. Next cells were washed with PBS and incubated in DMEM containing 50 μg/ml of gentamicin (Sigma-Aldrich). RUFI and clarithromycin (CLR) were added to the media to achieve final concentrations of 5 and 10 μM, respectively, and then the cultures were incubated for 2 days. The supernatant was removed, and cells were lysed in sterile distilled water for 30 min at 37°C. Cell lysates were serially diluted, plated on 7H10 agar, and incubated at 37°C for 2 to 3 days for enumeration of CFU.

In brackets after ≈: the same amount, converted by molar mass.

As to `C/C=C/C[C@@H]1NC(=O)[C@H](CC(C)C)N2C(=O)C(C[C@H](C)[C@H]2O)N(C)C(=O)[C@H](C)NC(=O)[C@H](Cc2ccc(O)c([N+](=O)[O-])c2)NC(=O)[C@H](CC(C)C)N(C)C(=O)[C@H](Cc2cn(C(C)(C)C3CO3)c3ccccc23)NC1=O` (some centres unmarked) [RUFI, rufomycin I], the MIC in test [1] was 0.003 to 0.011 µM (≈ 0.00313 to 0.0115 µg/mL); in test [2] it was 0.073 µM (≈ 0.0761 µg/mL); in test [3], 4.24 µM (≈ 4.42 µg/mL); in test [4], below 0.02 µM; in test [5], 0.04 µM (≈ 0.0417 µg/mL). Besides, in test [6], the “MBC (minimum bactericidal concentration)” value was 0.40 µM (≈ 0.417 µg/mL). For the same molecule, in test [6] (Mycobacterium tuberculosis, read-out: MBC (minimum bactericidal concentration)), the MBC is 0.4 µM (≈ 0.417 µg/mL). The “activity against M. abscessus in BMDMs (CFU)” value in test [7] is reported as “as effective as clarithromycin”.
